# Where a name gives a salt, the structure may show the parent alone.
# Test system: advanced or metastatic triple-negative breast cancer (ER-negative, PR-negative, HER2-negative)
# Test: Clinical trial in patients with advanced or metastatic triple-negative breast cancer
# Type: in vivo, human
# Conditions: patients aged ≥18 years; capsules alone or in combination with chemotherapy; 12 mg once daily, two-week treatment, one-week rest
structure (smiles),measurement,value
COc1cc2c(Oc3ccc4[nH]c(C)cc4c3F)ccnc2cc1OCC1(N)CC1 [1-[[[4-(4-fluoro-2-methyl-1H-indol-5-yl)oxy-6-methoxyquinolin-7-yl]oxy]methyl]cyclopropylamine dihydrochloride],efficacy for the treatment of triple-negative breast cancer,effective
